Laboratory results published in article PMC4679366 (European journal of medicinal chemistry, 2014).
Read-outs that look alike come from different tables or passages of the source.

Experiments:
HepG2 liver cells = test: HepG2 toxicity assay; format: cell-based; conditions: Homo sapiens, HepG2, read-out: HepG2 IC50
[1] = tested on: P. berghei exo-erythrocytic forms (EEF); test: Pb liver stage assay; format: cell-based; conditions: Plasmodium berghei, 48 h, read-out: Pb EEF IC50, P. berghei exo-erythrocytic forms in HepG2-A16-CD81EGFP cells, 48 h
P. falciparum = conditions: read-out: P. falciparum IC50; cited from earlier work
human HDAC4 = conditions: cited from earlier work
human HDAC5 = conditions: cited from earlier work
[2] = tested on: P. falciparum NF54 late stage gametocytes (IV–V); test: Late stage P. falciparum; format: cell-based; conditions: Plasmodium falciparum, NF54, HN12, 72 h, read-out: Pf LSG IC50
P. falciparum 3D7 [3] = test: Asexual stage in vitro antimalarial assay, [3H]-hypoxanthine incorporation; format: cell-based; conditions: Plasmodium falciparum, 3D7, read-out: Pf 3D7 IC50
P. falciparum 3D7 [4] = conditions: read-out: Pf 3D7 IC50, asexual blood stages; cited from earlier work
P. falciparum histone H3 = test: Histone hyperacetylation assay; format: cell-based, Plasmodium falciparum; conditions: 500 nM, 3 h, trophozoite-stage 3D7, Western blot anti-acetyl H3
P. falciparum histone H4 = test: Histone hyperacetylation assay; format: cell-based, Plasmodium falciparum; conditions: 500 nM, 3 h, trophozoite-stage 3D7, Western blot anti-acetyl H4

O=C1C(O)=C([C@H]2CC[C@H](c3ccc(Cl)cc3)CC2)C(=O)c2ccccc21 [Atovaquone]
IC50 (HepG2 liver cells): > 10000 nM

CCCCCOc1ccc(C(=O)NOCCCCCC(=O)NO)cc1 [Compound 1n, N-((6-(Hydroxyamino)-6-oxohexyl)oxy)-4-(pentyloxy)benzamide]
IC50 [1]: > 5000 nM

Nc1cccc(-c2csc(NC(=O)CCCCCCC(=O)NO)n2)c1 [WR301801 (YC-II-88)]
IC50 (P. falciparum): 0.6 to 1.8 nM

Cc1cc(C)cc(C(=O)NOCCCCCC(=O)NO)c1 [Compound 1a]
human HDAC4 IC50 (human HDAC4): low nanomolar
human HDAC5 IC50 (human HDAC5): low nanomolar

CCN(CC)CCCC(C)Nc1ccnc2cc(Cl)ccc12 (stereo not drawn) [Chloroquine]
IC50 [2]: > 120000 nM
IC50 (P. falciparum 3D7 [3]): 10 nM

CCCCCCOc1ccc(C(=O)NOCCCCCC(=O)NO)cc1 [Compound 1s, 4-(Hexyloxy)-N-((6-(hydroxyamino)-6-oxohexyl)oxy)benzamide]
IC50 [1]: > 5000 nM

CCCOc1ccc(C(=O)NOCCCCCC(=O)NO)cc1 [Compound 1m, N-((6-(Hydroxyamino)-6-oxohexyl)oxy)-4-propoxybenzamide]
IC50 [1]: > 5000 nM

CCCCc1nc2cc(/C=C/C(=O)NO)ccc2n1CCN(CC)CC [SB939]
IC50 (P. falciparum): 80 to 150 nM

O=C(CCCCCCC(=O)Nc1ccccc1)NO [SAHA, suberoylanilide hydroxamic acid]
IC50 (P. falciparum 3D7 [4]): 130 nM

O=C(/C=C/c1ccccc1)N[C@@H](CCCCCC(=O)NO)C(=O)Nc1cccc2cccnc12 [Compound 2-ASA-9]
IC50 (P. falciparum): 15 to 39 nM

Cc1ccc(C(=O)NOCCCCCC(=O)NO)cc1C [Compound 1b]
hyperacetylation of P. falciparum histone H3 (P. falciparum histone H3): to a lesser extent

CC(/C=C/C(=O)NO)=C\[C@@H](C)C(=O)c1ccc(N(C)C)cc1 [TSA, Trichostatin A]
hyperacetylation of P. falciparum histone H4 (P. falciparum histone H4): caused hyperacetylation
IC50 (P. falciparum): 8 to 11 nM
